Laboratory results reported in EP0569777A2 (Bayer Corporation, priority 1992, dated 1993).
“Also recorded” adds a separate entry of the source. Where a SMILES comes first, the peptide text is derived from it. [ ]: non-standard residue; d: D form. The star is where a group is joined. Sta = CC(C)C[C@H](N)[C@@H](O)CC(=O)O; Isovaleryl = CC(C)CC(=O)*

How the values were obtained:
Format in all cases: biochemical
[1] = target: human cathepsin D (human liver, Cal Biochem, catalog # 219401) (Homo sapiens, UniProt P07339); test: N-dansyl peptide (SEQ ID NO: 7) peptidase assay with HPLC detection, cathepsin D; settings: pepstatin A 213 uM; cathepsin D 2.8 ug/ml, N-Dansyl-peptide 24 uM, pH 5.0, 37 C; Figure 10
Chain of human cathepsin D (human liver, Cal Biochem, catalog # 219401) (P07339 with tags, fused parts or gaps): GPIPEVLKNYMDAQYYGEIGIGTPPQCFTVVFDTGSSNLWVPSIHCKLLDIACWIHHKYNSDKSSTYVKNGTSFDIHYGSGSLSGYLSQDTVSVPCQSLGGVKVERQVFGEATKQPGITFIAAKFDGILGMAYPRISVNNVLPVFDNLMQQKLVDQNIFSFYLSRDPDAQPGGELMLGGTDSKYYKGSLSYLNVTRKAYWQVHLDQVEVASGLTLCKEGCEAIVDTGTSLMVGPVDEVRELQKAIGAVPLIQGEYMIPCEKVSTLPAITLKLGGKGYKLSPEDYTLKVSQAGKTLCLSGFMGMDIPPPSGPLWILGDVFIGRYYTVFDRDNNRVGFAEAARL
Description: (§1) Reactions (30 ul) were initiated at 37 C by enzyme/inhibitor addition thereby achieving the following t=0 component concentrations: Cathepsin D (2.8 ug/ml), or P-2 enzyme from figure 6 (17.5 ug/ml), N-Dansyl-peptide (24 uM), captopril (0.3 mM) in a cocktail buffer comprising 130 mM in each of acetate, Mes and Tris pH 5.0. Samples contained either pepstatin A (213 uM in 3% v/v final methanol) or an equivalent final concentration of methanol only. At 0, 2, 4, 8 and 24hr, reactions were terminated by addition of 12 % (v/v) TFA (10 ul) and subject to HPLC analysis according to example 2 and 3.
(§2) • i) Incubations. […] Incubation with ion-exchange fractions was performed at 37°C for 24 hrs, after which reactions were terminated by adjusting to 3% (v/v) final in TFA. • ii) HPLC quantification of proteolytic products. HPLC analysis was performed using a Hewlet-Packard HP1090 complete with binary solvent delivery, heated column compartment, and auto injector.

[2] = target: human brain P-2 enzyme (peak B), aspartic protease identified as cathepsin D (Homo sapiens, UniProt P07339); test: N-dansyl peptide (SEQ ID NO: 7) peptidase assay with HPLC detection, P-2 enzyme (peak B); settings: pepstatin A 213 uM; P-2 enzyme 17.5 ug/ml, N-Dansyl-peptide 24 uM, pH 5.0, 37 C; Figure 10
Chain of human brain P-2 enzyme (peak B), aspartic protease identified as cathepsin D (P07339 with tags, fused parts or gaps): as above
Description: as §1, §2

[3] = test system: human brain P-2 derived aprotinin binding pool Y protease (chymotryptic-like serine protease); test: Immunoblot assay of APP degradation by the pool Y serine protease; settings: 400 uM pepstatin in methanol; pool Y 14 ug/ml, APP 35 nM, Mes pH 6.5, 4 hr; Figure 18a
Description: Reactions were initiated at 37°C by enzyme addition to achieve the following initial component concentrations in a 16 ul volume: pool Y # 3-5 (14 ug/ml) after purification on a superdex 75 column, APP (35 nM), in 30 mM Mes buffer pH 6.5. Reactions were terminated by addition of 7.5 ul of 3X sample buffer. Immunoblots were developed using the rabbit antiserum to the APP C-terminal domain according to example 8. […] The following controls were also run: no inhibitor (lane 12), ethanol (lane 3), methanol (lane 5), pool Y only (lane 2), APP only at time zero (lane 13) and 4 hr (lane 14). Lanes 1 and 7 respectively show prestained Mr markers and the C-100 standard. Panel (b) 1.8 uM alpha-1-antichymotrypsin (lane 2), 156 uM TLCK (lane 3), 46 uM chymotrypsin inhibitor I (lane 4), 119 uM chymotrypsin inhibitor II (lane 5), 4 uM alpha-2-antiplasmin (lane 6), 51 uM alpha-1-antitrypsin (lane 7), 98 uM chymostatin administered in DMSO (lane 10), 153 uM methanolic TPCK (lane 12). Controls included: no inhibitor (lane 8), DMSO (lane 11), and methanol (lane 13). Pre-stained molecular weight markers and C-100 standards were applied to lanes 1 and 9 respectively. Incubation times of 4 and 2 hr were used in panels a) and b) respectively.
• i) Sub-cellular fractionation. This was performed essentially as described in Method 1, above. • ii) Solubilization. This was performed essentially as described in Method 1, above. • iii) Aprotinin-sepharose chromatography. Soluble (230 mg), P-2 (216 mg) or microsomal fraction (47 mg) described above was applied to a column of aprotinin sepharose (Sigma, catalog # 42268, 1.5 X 10 cm), previously equilibrated with 20 mM Tris HCl buffer pH 7.0. Once loaded the column was washed with equilibration buffer (100 ml), and then eluted with 60 ml of 50 mM sodium acetate buffer pH 5.0 containing 500 mM sodium chloride. The flow rate was 1.0 ml/min throughout. Eluted fractions (4 ml) were monitored at 280 nm, analysed using the Bradford protein assay, and examined for APP C-terminal processing activity as described in Example 8, using recombinant APP derived by expression in a baculo virus system. […] Active fractions from the purification of the P-2 fraction on aprotinin-sepharose were pooled, dialyzed against 50 mM Tris-HCl pH 7.5 and applied to a mono-Q column (HR 5/5), previously equilibrated with dialysis buffer. Once loaded, the column was eluted essentially as described in Method 1. above. Active fractions (2 ml), were monitored for A 280 nm, total protein (Bradford assay), and for their capacity for baculo virus derived APP C-terminal processing. […] Pools X, Y, and Z were each concentrated to either 2 ml (pool X and Y) or 3.6 ml (pool z) and separately applied to a Superdex 75 column (Pharmacia, Piscataway NJ.) previously equilibrated with 50 mM Tris-HCl pH 7.5, containing 150 mM sodium chloride. Once loaded, the column was eluted with equilibration buffer. Chromatography was performed at a flow rate of 1.0 ml/min throughout. Fractions (1 ml) were monitored for A 280 nm, total protein (Bradford assay) and for C-terminal processing of baculo expressed APP. The gel filtration was calibrated by chromatography of each of the following standard proteins: Thyroglobulin (670 kDa), bovine gamma globulin (158 kDa), ovalbumin (44 kDa), myoglobin (17.5 kDa) and vitamin B 12 (1.35 kDa).

[4] = test system: human AD brain fraction P2 V APP degrading activity; test: Immunoblot assay of APP 695 degradation by Mono-Q pool P2 V; settings: 11.5 kDa fragment, trial A,B, Pepstatin A 400µM (methanolic), pH 6.5, 24 hrs, 37°C
Description: ii) Solubilization. The membranous control or AD subfractions (P-2 or M) were solubilized by adjusting to the following conditions: 2% (v/v) Triton X-100 containing 50 mM Tris HCl buffer, pH 7.5. After stirring at 4°C for 3.5 hrs, the suspensions were centrifuged at 105,000 g x 60 min in a Beckman 70 Ti rotor. The following final protein concentrations were used in solubilization, for P-2 (3.9 to 4.0 mg/ml); and for M (1.4 to 1.6 mg/ml). Solubilized supernatants were stored at -70°C for later use. The soluble fraction was not treated with detergent but rather was adjusted to 50 mM in Tris HCl, pH 7.5, by the addition of stock 1M buffer. iii) Ion-exchange chromatography. Chromatography was performed using a Gilson gradient liquid chromatograph (model 305 and 306 pumps) equipped with a 50 ml Rheodyne stainless steel loop injector model 7125, and connected to a Mono Q HR 10/10 column (Pharmacia, Piscataway, NJ). Absorbance of column effluent was monitored at 280 nm using a Pharmacia UV-M detector and a Kippen-zonen chart recorder. […] In the initial studies, eluted fractions were monitored for A280 nm, total protein (Bradford assay), and peptidase activity (as decsribed in Examples 2 and 3). […] Fractions were monitored for A 280 nm, total protein (Bradford assay), peptidase activity, and activity for C-terminal processing of recombinant APP. […]

CC(C)CC(=O)N[C@H](C(=O)N[C@H](C(=O)N[C@@H](CC(C)C)[C@@H](O)CC(=O)N[C@@H](C)C(=O)N[C@@H](CC(C)C)[C@@H](O)CC(=O)O)C(C)C)C(C)C [pepstatin A] (Isovaleryl-VV[Sta]A[Sta]-OH)
Inhibition of peptidase reaction catalyzed by Cathepsin D [1]: inhibited
Inhibition of peptidase reaction catalyzed by the P-2 enzyme preparation [2]: inhibited
Inhibitor sensitivity of the pool Y protease (APP degradation) [3]: unaffected
Inhibitors (pH 6.5): compounds causing complete inhibition are listed [4]: completely; also recorded: pepstatin A aprotinin
